According to US7544814B2, “[3.2.0] Heterocyclic compounds and methods of using the same” (Nereus Pharmaceuticals, Inc., priority 2004, dated 2009):
Several values for one entry are separate records, joined by “and”; a condition that tells them apart may be missing. Equal entries are not always repeated.

How the values were obtained:
[1] = target: T1, chymotrypsin-like activity of 20S proteasomes in PC-3 cells (Homo sapiens, UniProt P28074); test: Chymotrypsin-like activity of 20S proteasomes in lysates of treated PC-3 cells; type: cell-based; conditions: PC-3, read-out: % inhibition of the chymotrypsin-like activity of 20S proteasomes in PC-3 cell lysates; 100 nM; 1 hr incubation
T1 construct: endogenous in cells; host or cells: PC-3 (ATCC CRL-1435)
Description: PC-3 (ATCC, CRL-1435), the human prostate cancer cell line, was cultured in F12K medium supplemented with 2 mM L-glutamine, 100 units/ml penicillin, 100 μg/ml streptomycin and 10% heat inactivated fetal bovine serum at 37° C., 5% CO2 and 95% humidified air. […] DMSO was used as the vehicle control at a final concentration of 0.1%. Following 1 hr incubation of PC-3 cells with the compounds, the cells were washed 3× with ice-cold 1× Dulbecco's Phosphate-Buffered Saline (DPBS, Mediatech, Herndon, Va.). […] Cell debris was pelleted by centrifugation at 14,000 rpm for 10 min, 4° C. and supernatants (=cell lysates) were transferred to a new tube. Protein concentration was determined by the BCA protein assay kit (Pierce Biotechnology, Rockford, Ill.). […] The released coumarin (AMC) was measured fluorometrically by using λex=390 nm and λem=460 nm. The assay was performed in a microtiter plate (Corning 3904) and followed kinetically with measurements every five minutes for 2 hr. The total amount of protein used for each assay was 20 μg. The final concentration of Suc-LLVY-AMC and DMSO was 20 μM and 0.2%, respectively. Results are presented as the percent inhibition of the 20S proteasome chymotrypsin-like activity relative to the DMSO control.

[2] = target: T2, trypsin-like activity of purified rabbit muscle 20S proteasome (Oryctolagus cuniculus, UniProt G1SWK8); test: biochemical
T2 sequence (G1SWK8 1-271): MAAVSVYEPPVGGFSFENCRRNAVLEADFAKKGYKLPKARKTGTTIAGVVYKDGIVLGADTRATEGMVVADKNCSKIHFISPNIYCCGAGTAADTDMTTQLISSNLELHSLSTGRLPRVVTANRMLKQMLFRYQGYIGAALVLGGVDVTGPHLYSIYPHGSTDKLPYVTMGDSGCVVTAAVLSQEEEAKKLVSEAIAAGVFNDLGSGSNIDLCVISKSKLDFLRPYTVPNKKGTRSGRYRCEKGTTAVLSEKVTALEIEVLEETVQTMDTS

C[C@H]1C(=O)N[C@@]2(C(O)[C@@H]3C=CCCC3)C(=O)O[C@@]12C (single isomer, unassigned) [Formula II-20]
inhibition at 0.1 µM [1]: 57% | EC50 [2]: 318 nM and 321 nM
